Test results reported in ChEMBL document CHEMBL1131394, “Design and synthesis of N-alkylated saccharins as selective alpha-1a adrenergic receptor antagonists” (Bioorg Med Chem Lett, 1998).

Assays:
[1] = target: T1, Alpha-1A adrenergic receptor (Homo sapiens, UniProt P35348); experiment: Ability to displace beta ([125I]-iodo-4-hydroxyphenyl)-ethylaminomethyl tetralone from human cloned Alpha-1a adrenergic receptor stably expressed in Chinese Hamster Ovary (CHO) cells; assay type: cell-based
T1 sequence (P35348 whole entry): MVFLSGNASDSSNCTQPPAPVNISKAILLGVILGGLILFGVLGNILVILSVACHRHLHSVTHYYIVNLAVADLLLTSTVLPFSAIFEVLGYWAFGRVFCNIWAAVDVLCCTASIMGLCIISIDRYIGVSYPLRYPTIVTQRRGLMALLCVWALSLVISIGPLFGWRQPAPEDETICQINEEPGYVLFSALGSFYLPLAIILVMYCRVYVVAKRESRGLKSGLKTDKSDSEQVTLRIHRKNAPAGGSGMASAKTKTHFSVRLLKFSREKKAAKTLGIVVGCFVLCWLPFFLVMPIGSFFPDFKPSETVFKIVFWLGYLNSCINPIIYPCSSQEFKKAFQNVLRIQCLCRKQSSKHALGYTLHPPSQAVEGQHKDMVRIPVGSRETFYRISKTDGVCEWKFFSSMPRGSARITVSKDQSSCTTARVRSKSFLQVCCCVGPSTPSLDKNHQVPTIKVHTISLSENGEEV

[2] = target: T2, Alpha-1D adrenergic receptor (Homo sapiens, UniProt P25100); experiment: Ability to displace beta ([125I]-iodo-4-hydroxyphenyl) ethylamino methyl tetralone from human cloned Alpha-1d adrenergic receptor stably expressed in HEK cells.; assay type: cell-based, HEK293
T2 sequence (P25100 whole entry): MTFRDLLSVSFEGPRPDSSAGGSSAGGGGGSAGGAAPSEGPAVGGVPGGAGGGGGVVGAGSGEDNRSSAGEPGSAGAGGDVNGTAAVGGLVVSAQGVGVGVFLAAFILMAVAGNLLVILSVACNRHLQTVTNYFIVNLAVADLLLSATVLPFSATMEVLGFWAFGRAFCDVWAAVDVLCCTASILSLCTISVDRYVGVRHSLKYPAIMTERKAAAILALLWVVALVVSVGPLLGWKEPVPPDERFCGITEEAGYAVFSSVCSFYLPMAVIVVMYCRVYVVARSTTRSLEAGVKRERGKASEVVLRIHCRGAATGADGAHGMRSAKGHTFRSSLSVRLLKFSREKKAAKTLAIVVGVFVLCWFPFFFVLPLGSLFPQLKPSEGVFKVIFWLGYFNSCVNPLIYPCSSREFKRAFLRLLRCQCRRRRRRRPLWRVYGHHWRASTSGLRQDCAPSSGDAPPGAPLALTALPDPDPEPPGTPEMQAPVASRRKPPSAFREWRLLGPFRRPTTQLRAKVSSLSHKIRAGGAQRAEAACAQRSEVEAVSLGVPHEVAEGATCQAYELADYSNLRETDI

[3] = target: T3, Alpha-1B adrenergic receptor (Homo sapiens, UniProt P35368); experiment: Ability to displace beta ([125I]-iodo-4-hydroxyphenyl)-ethylamino methyl tetralone from human cloned Alpha-1b adrenergic receptor stably expressed in LM cells.; assay type: cell-based
T3 sequence (P35368 whole entry): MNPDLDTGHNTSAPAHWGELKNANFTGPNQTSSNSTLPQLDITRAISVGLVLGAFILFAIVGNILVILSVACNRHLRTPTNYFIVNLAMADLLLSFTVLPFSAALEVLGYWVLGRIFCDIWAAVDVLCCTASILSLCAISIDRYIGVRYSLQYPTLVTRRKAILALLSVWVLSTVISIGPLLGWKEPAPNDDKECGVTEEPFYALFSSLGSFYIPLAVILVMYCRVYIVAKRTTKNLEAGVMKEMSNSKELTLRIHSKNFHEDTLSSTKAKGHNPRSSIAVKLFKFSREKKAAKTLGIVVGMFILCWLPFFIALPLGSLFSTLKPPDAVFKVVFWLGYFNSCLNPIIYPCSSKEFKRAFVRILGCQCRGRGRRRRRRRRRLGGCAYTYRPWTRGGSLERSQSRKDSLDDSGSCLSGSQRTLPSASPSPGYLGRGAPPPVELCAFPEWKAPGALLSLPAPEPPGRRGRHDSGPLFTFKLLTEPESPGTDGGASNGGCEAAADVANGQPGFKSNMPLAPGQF

[4] = target: T1, Alpha-1A adrenergic receptor; experiment: Ability to displace beta ([125I]-iodo-4-hydroxyphenyl)-ethylaminomethyl tetralone from human cloned Alpha-1a adrenergic receptor stably expressed in CHO cells
[5] = target: T4, Alpha adrenergic receptor (1a and 1d) (Homo sapiens) (UniProt P35348+P25100); experiment: Selectivity towards Alpha-1A over alpha-1d receptor; 266x; assay type: protein assay
[6] = target: T5, Adrenergic receptors; alpha-1 A & B (Homo sapiens) (UniProt P35348+P35368); experiment: Selectivity towards Alpha-1A over alpha-1b receptor; 188x; assay type: protein assay
[7] = target: T5, Adrenergic receptors; alpha-1 A & B (Homo sapiens); experiment: Selectivity towards Alpha-1A over alpha-1b receptor; 3.3x; assay type: protein assay
[8] = target: T1, Alpha-1A adrenergic receptor; experiment: Ability to displace beta ([125I]-iodo-4-hydroxyphenyl)-ethylamino methyl tetralone from human cloned Alpha-1a adrenergic receptor stably expressed in Chinese Hamster Ovary (CHO) cells; assay type: cell-based
[9] = target: T4, Alpha adrenergic receptor (1a and 1d) (Homo sapiens); experiment: Selectivity towards alpha-1a over alpha1d receptor; 5.5x; assay type: protein assay
[10] = target: T1, Alpha-1A adrenergic receptor; experiment: Ability to displace beta ([125I]-iodo-4-hydroxyphenyl)-ethylaminomethyl tetralone from human cloned Alpha-1a adrenergic receptor stably expressed in CHO cells; assay type: cell-based
[11] = target: T4, Alpha adrenergic receptor (1a and 1d) (Homo sapiens); experiment: Selectivity towards Alpha-1A over alpha-1d receptor; 56x; assay type: protein assay
[12] = target: T5, Adrenergic receptors; alpha-1 A & B (Homo sapiens); experiment: Selectivity towards Alpha-1A over alpha-1b receptor; 11x; assay type: protein assay
[13] = test system: Canis familiaris; experiment: In vivo inhibitory activity against […]-induced increase in urethral pressure (IUP) in dog; assay type: functional, Canis lupus familiaris, Urethra
[14] = test system: Canis familiaris; experiment: In vivo inhibitory activity against […]-induced increase in diastolic blood pressure (DBP) in dog; assay type: functional, Canis lupus familiaris, Artery
[15] = target: T5, Adrenergic receptors; alpha-1 A & B (Homo sapiens); experiment: Selectivity towards Alpha-1A over alpha-1b receptor; 5x; assay type: protein assay
[16] = target: T4, Alpha adrenergic receptor (1a and 1d) (Homo sapiens); experiment: Selectivity towards Alpha-1A over alpha1d receptor; 11x; assay type: protein assay
[17] = target: T3, Alpha-1B adrenergic receptor; experiment: Ability to displace beta ([125I]-iodo-4-hydroxyphenyl)-ethylamino methyl tetralone from human cloned Alpha-1b adrenergic receptor stably expressed in COS-7 cells; assay type: cell-based
[18] = target: T2, Alpha-1D adrenergic receptor; experiment: Ability to displace beta ([125I]-iodo-4-hydroxyphenyl)-ethylamino methyl tetralone from human cloned Alpha-1d adrenergic receptor stably expressed in COS-7 cells; assay type: cell-based
[19] = target: T1, Alpha-1A adrenergic receptor; experiment: Ability to displace beta ([125I]-iodo-4-hydroxyphenyl)-ethylaminomethyl tetralone from human cloned Alpha-1a adrenergic receptor stably expressed in COS-7 cells; assay type: cell-based
[20] = target: T5, Adrenergic receptors; alpha-1 A & B (Homo sapiens); experiment: Selectivity towards alpha-1a over alpha-1b receptor; 97x; assay type: protein assay
[21] = target: T4, Alpha adrenergic receptor (1a and 1d) (Homo sapiens); experiment: Selectivity towards Alpha-1A over alpha1d receptor; 208x; assay type: protein assay

Ki [2] | Ki [3] | Ki [8] | SMILES | other results
76 nM | 15 nM | – | COc1ccc2c(c1)C(=O)N(CCCCN1CCC(n3c(=O)oc4ccccc43)CC1)S2(=O)=O | Ki [1]: 0.064 nM
71 nM | 50 nM | – | O=C1c2cc(F)ccc2S(=O)(=O)N1CCCCN1CCC(n2c(=O)oc3ccccc32)CC1 | Ki [4]: 0.27 nM; Selectivity [5]: 266; Selectivity [6]: 188
2750 nM | 1650 nM | 499 nM | COc1ccc2c(c1)oc(=O)n2C1CCN(CCCCN2C(=O)c3ccccc3S2(=O)=O)CC1 | Selectivity [7]: 3.3; Selectivity [9]: 5.5
3430 nM | 1960 nM | 1030 nM | COC(=O)c1ccc2c(c1)oc(=O)n2C1CCN(CCCCN2C(=O)c3ccccc3S2(=O)=O)CC1 | –
59 nM | 10 nM | – | CSc1ccc2c(c1)C(=O)N(CCCCN1CCC(n3c(=O)oc4ccccc43)CC1)S2(=O)=O | Ki [10]: 0.057 nM
351 nM | 133 nM | 0.13 nM | O=C1c2cc([N+](=O)[O-])ccc2S(=O)(=O)N1CCCCN1CCC(n2c(=O)oc3ccccc32)CC1 | –
– | – | – | O=C1c2ccccc2C(=O)N1CCCCN1CCC(n2c(O)nc3ccccc32)CC1 | Selectivity [11]: 56; Selectivity [12]: 11
894 nM | 676 nM | 90 nM | O=C1c2ccccc2S(=O)(=O)N1CCCCN1CCC(n2c(=O)oc3cc4c(cc32)CCCC4)CC1 | –
85 nM | – | – | O=C1c2cc(Cl)ccc2S(=O)(=O)N1CCCCN1CCC(n2c(=O)oc3ccccc32)CC1 | Kb [13]: 5.5 µg/kg; Kb [14]: 156 µg/kg
224 nM | 108 nM | 20 nM | Cc1cc(C)c2oc(=O)n(C3CCN(CCCCN4C(=O)c5ccccc5S4(=O)=O)CC3)c2c1 | Selectivity [15]: 5; Selectivity [16]: 11
73 nM | 20 nM | – | Cc1ccc2c(c1)C(=O)N(CCCCN1CCC(n3c(=O)oc4ccccc43)CC1)S2(=O)=O | Ki [1]: 0.099 nM
1020 nM | 1150 nM | 147 nM | Cc1cccc2oc(=O)n(C3CCN(CCCCN4C(=O)c5ccccc5S4(=O)=O)CC3)c12 | –
– | – | – | CS(=O)(=O)c1ccc2c(c1)S(=O)(=O)N(CCCCN1CCC(n3c(=O)oc4ccccc43)CC1)C2=O | Ki [17]: 6.8 nM; Ki [18]: 210 nM; Ki [19]: 2.4 nM
136 nM | 37 nM | 1.2 nM | Cc1ccc2oc(=O)n(C3CCN(CCCCN4C(=O)c5ccccc5S4(=O)=O)CC3)c2c1 | –
41 nM | 14 nM | 0.12 nM | O=C1c2ccccc2S(=O)(=O)N1CCCCN1CCC(n2c(=O)oc3ccccc32)CC1 | –
25 nM | 7.3 nM | 0.084 nM | O=C1c2ccccc2S(=O)(=O)N1CCCCN1CCC(n2c(=O)oc3cc(F)ccc32)CC1 | –
644 nM | 301 nM | 3.1 nM | Cc1ccc2c(c1)oc(=O)n2C1CCN(CCCCN2C(=O)c3ccccc3S2(=O)=O)CC1 | Selectivity [20]: 97; Selectivity [21]: 208
– | – | – | COc1cc2nc(N3CCN(C(=O)C4CCCO4)CC3)nc(N)c2cc1OC (stereo unspecified) [TERAZOSIN] | Kb [13]: 16 µg/kg; Kb [14]: 17 µg/kg
75 nM | 75 nM | – | O=C1c2ccc([N+](=O)[O-])cc2S(=O)(=O)N1CCCCN1CCC(n2c(=O)oc3ccccc32)CC1 | Ki [10]: 0.16 nM

SMILES | Ki [2] | Ki [3] | Ki [8] | other results
O=C1c2ccccc2C(=O)N1CCCCN1CCC(n2c(=O)[nH]c3ccccc32)CC1 | 16 nM | 3 nM | 0.28 nM | –
